The record followed here is US7723368B2, “Amino-5-[4-(difluoromethoxy)phenyl]-5-phenylimidazolone compounds for the inhibition of beta-secretase” (Wyeth LLC, priority 2007, dated 2010).

By IC50 is commonly meant the concentration at which inhibition is half-maximal. Low readings indicate higher potency, high ones lower potency. One may read the melting point as the temperature, or range, at which the solid turns liquid.

The target of one data set is human BACE1 (Homo sapiens, UniProt P56817). The data set can be described thus: BACE1 fluorescent kinetic assay (cleavage of peptide substrate WABC-6). Format: biochemical. The note with it: 10 nM enzyme, 25 μM substrate WABC-6, pH 4.5, room temperature. The procedure:
Evaluation of BACE1 Binding Affinity of Test Compounds
Fluorescent Kinetic Assays
Dilution and mixing steps: total reaction volume: 100 μL
100 μM substrate dilution in 1×PBS was prepared, and
Fluorescence Readings: Readings at λex 320 nm and λem 420 nm are taken every 40 sec for 30 min at room temperature and the linear slope for substrate cleavage rate (vi) determined.

human BACE1, sequence (P56817 46-501): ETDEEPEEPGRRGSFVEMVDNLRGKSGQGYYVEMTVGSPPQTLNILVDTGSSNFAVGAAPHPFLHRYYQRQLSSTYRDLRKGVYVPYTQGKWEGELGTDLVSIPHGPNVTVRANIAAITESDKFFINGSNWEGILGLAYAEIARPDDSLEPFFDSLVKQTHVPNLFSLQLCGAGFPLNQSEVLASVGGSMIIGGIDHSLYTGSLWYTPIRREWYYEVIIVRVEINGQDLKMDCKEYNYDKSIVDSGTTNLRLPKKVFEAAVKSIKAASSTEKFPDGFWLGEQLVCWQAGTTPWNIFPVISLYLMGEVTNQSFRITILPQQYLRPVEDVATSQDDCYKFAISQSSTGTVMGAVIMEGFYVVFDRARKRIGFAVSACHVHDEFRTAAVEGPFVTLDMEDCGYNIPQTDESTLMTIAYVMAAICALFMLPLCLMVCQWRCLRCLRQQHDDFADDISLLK

In turn, `CN1C(=O)C(c2ccc(OC(F)F)cc2)(c2ccc(F)c(CF)c2)N=C1N` (stereo not drawn) [Example 17, 2-Amino-5-(4-difluoromethoxy-phenyl)-5-(4-fluoro-3-fluoromethyl-phenyl)-3-methyl-3,5-dihydro-imidazol-4-one] yielded a melting point of 70 to 73 °C. For the same compound, the IC50 against human BACE1 (Activity Table, Examples 1-108) lay within 0.11 to 1 µM.

Take `C=CCCC(F)c1cccc(C2(c3ccc(OC(F)F)cc3)N=C(N)N(C)C2=O)c1` (stereo not drawn) [Example 12, 2-Amino-5-(4-difluoromethoxy-phenyl)-5-[3-(1-fluoro-pent-4-enyl)-phenyl]-3-methyl-3,5-dihydro-imidazol-4-one]: the melting point was 50 to 55 °C. For the same compound, the IC50 on human BACE1 (Activity Table, Examples 1-108) was less than 0.1 µM.

On to `Cc1ccccc1C1(c2ccc(OC(F)F)cc2)N=C(N)N(C)C1=O` (stereo not drawn) [Example 18, 2-Amino-5-(4-difluoromethoxy-phenyl)-3-methyl-5-o-tolyl-3,5-dihydro-imidazol-4-one], for which the melting point fell in the range of 85 to 90 °C. Also, the IC50 against human BACE1 (Activity Table, Examples 1-108) is more than 1 µM.

The compound `CN1C(=O)C(c2ccc(OC(F)F)cc2)(c2ccc(F)c(CCCC#N)c2)N=C1N` (stereo not drawn) [Example 14, 4-{5-[2-Amino-4-(4-difluoromethoxy-phenyl)-1-methyl-5-oxo-4,5-dihydro-1H-imidazol-4-yl]-2-fluoro-phenyl}-butyronitrile] showed a melting point of 65 to 70 °C. This compound had an IC50 against human BACE1 (Activity Table, Examples 1-108) of less than 0.1 µM.

`COc1ccc(C2(c3ccc(OC(F)F)cc3)N=C(N)N(C)C2=O)cc1C#N` (stereo not drawn) [Example 16, 5-[2-Amino-4-(4-difluoromethoxy-phenyl)-1-methyl-5-oxo-4,5-dihydro-1H-imidazol-4-yl]-2-methoxy-benzonitrile] displayed a melting point of 104 to 105 °C. The compound further came in with an IC50 against human BACE1 (Activity Table, Examples 1-108) of more than 1 µM.

Compound `C=CCC(F)c1cccc(C2(c3ccc(OC(F)F)cc3)N=C(N)N(C)C2=O)c1` (stereo not drawn) [Example 57, 2-amino-5-[4-(difluoromethoxy)phenyl]-5-[3-(1-fluorobut-3-en-1-yl)phenyl]-3-methyl-3,5-dihydro-4H-imidazol-4-one] showed a melting point of 49 to 51 °C. The same compound showed an IC50 on human BACE1 (Activity Table, Examples 1-108) of 0.11 to 1 µM.

In turn, `C=CCCOc1cc(C2(c3ccc(OC(F)F)cc3)N=C(N)N(C)C2=O)ccc1F` (stereo not drawn) [Example 9, 2-amino-5-[3-(but-3-en-1-yloxy)-4-fluorophenyl]-5-[4-(difluoromethoxy)phenyl]-3-methyl-3,5-dihydro-4H-imidazol-4-one] had an IC50 on human BACE1 (Activity Table, Examples 1-108) of less than 0.1 µM.

`Cc1cccc(C2(c3ccc(OC(F)F)cc3)N=C(N)N(C)C2=O)c1` (stereo not drawn) [Example 74, 2-Amino-5-[4-(difluoromethoxy)phenyl]-3-methyl-5-(3-methylphenyl)-3,5-dihydro-4H-imidazol-4-one] returned an IC50 at human BACE1 (Activity Table, Examples 1-108) of 0.11 to 1 µM.

On to `CC(C)C#Cc1cc(C2(c3ccc(OC(F)F)cc3)N=C(N)N(C)C2=O)ccc1F` (stereo not drawn) [Example 138, 2-amino-5-[4-(difluoromethoxy)phenyl]-5-[4-fluoro-3-(3-methylbut-1-yn-1-yl)phenyl]-3-methyl-3,5-dihydro-4H-imidazol-4-one], for which the IC50 against human BACE1 (Examples 109-141) was less than 0.1 µM.

In the case of `CN1C(=O)C(c2ccc(OC(F)F)cc2)(c2cccc(CCCCC#N)c2)N=C1N` (stereo not drawn) [Example 83, 5-(3-{2-Amino-4-[4-(difluoromethoxy)phenyl]-1-methyl-5-oxo-4,5-dihydro-1H-imidazol-4-yl}phenyl)pentanenitrile], the melting point amounted to 65 °C. Besides, on human BACE1 (Activity Table, Examples 1-108), the half-maximal inhibitory concentration (IC50) was less than 0.1 µM.

As to `C=CCCC(F)c1cc(C2(c3ccc(OC(F)F)cc3)N=C(N)N(C)C2=O)ccc1F` (stereo not drawn) [Example 13, 2-Amino-5-(4-difluoromethoxy-phenyl)-5-[4-fluoro-3-(1-fluoro-pent-4-enyl)-phenyl]-3-methyl-3,5-dihydro-imidazol-4-one], the melting point was 50 to 55 °C. At human BACE1 (Activity Table, Examples 1-108), the IC50 lay in the range of 0.11 to 1 µM.

On to `CCC(=O)Nc1cccc(C2(c3ccc(OC(F)F)cc3)N=C(N)N(C)C2=O)c1` (stereo not drawn) [Example 21], for which the IC50 against human BACE1 (Activity Table, Examples 1-108) was 0.11 to 1 µM.

Turning to `CN1C(=O)[C@](c2ccc(OC(F)F)cc2)(c2ccc(F)c(C#CCF)c2)N=C1N` [Example 108, (5S)-2-amino-5-[4-(difluoromethoxy)phenyl]-5-[4-fluoro-3-(3-fluoroprop-1-yn-1-yl)phenyl]-3-methyl-3,5-dihydro-4H-imidazol-4-one], at human BACE1 (Activity Table, Examples 1-108), the IC50 was more than 1 µM.

`CN1C(=O)[C@@](c2ccc(OC(F)F)cc2)(c2ccc(F)c(OCCC(F)F)c2)N=C1N` [Example 94, (5R)-2-Amino-5-[4-(difluoromethoxy)phenyl]-5-[3-(3,3-difluoropropoxy)-4-fluorophenyl]-3-methyl-3,5-dihydro-4H-imidazol-4-one] came in with an IC50 against human BACE1 (Activity Table, Examples 1-108) of less than 0.1 µM.

In turn, `C=C(C)CCOc1cccc([C@@]2(c3ccc(OC(F)F)cc3)N=C(N)N(C)C2=O)c1` [Example 10G, (R)-2-amino-4-(4-(difluoromethoxy)phenyl)-1-methyl-4-(3-(3-methylbut-3-enyloxy)phenyl)-1H-imidazol-5(4H)-one] showed an IC50 against human BACE1 (Activity Table, Examples 1-108) of less than 0.1 µM.

Consider `C=CC(C)COc1cccc([C@@]2(c3ccc(OC(F)F)cc3)N=C(N)N(C)C2=O)c1` (stereo partly drawn) [Example 10F, (4R)-2-amino-4-(4-(difluoromethoxy)phenyl)-1-methyl-4-(3-(2-methylbut-3-enyloxy)phenyl)-1H-imidazol-5(4H)-one], for which the IC50 against human BACE1 (Activity Table, Examples 1-108) is less than 0.1 µM.

In turn, `C/C=C\c1cc([C@@]2(c3ccc(OC(F)F)cc3)N=C(N)N(C)C2=O)ccc1F` [Example 76B, (5R)-2-amino-5-[4-(difluoromethoxy)phenyl]-5-{4-fluoro-3-[(1Z)-prop-1-en-1-yl]phenyl}-3-methyl-3,5-dihydro-4H-imidazol-4-one] returned an IC50 on human BACE1 (Activity Table, Examples 1-108) of more than 1 µM.

`C=CCCCCc1cccc(C2(c3ccc(OC(F)F)cc3)N=C(N)N(C)C2=O)c1` (stereo not drawn) [Example 125, 2-amino-5-[4-(difluoromethoxy)phenyl]-5-(3-hex-5-en-I-ylphenyl)-3-methyl-3,5-dihydro-4H-imidazol-4-one] yielded an IC50 on human BACE1 (Examples 109-141) of less than 0.1 µM.

`CN1C(=O)C(c2ccc(OC(F)F)cc2)(c2cccc(NC(=O)COCc3ccccc3)c2)N=C1N` (stereo not drawn) [Example 34]: at human BACE1 (Activity Table, Examples 1-108), the IC50 fell in the range of 0.11 to 1 µM.

In the case of `CN1C(=O)C(c2ccc(OC(F)F)cc2)(c2cccc(NC(=O)CCCl)c2)N=C1N` (stereo not drawn) [Example 24], on human BACE1 (Activity Table, Examples 1-108), the IC50 is 0.11 to 1 µM.

Take `CC(C)C(=O)Nc1cccc(C2(c3ccc(OC(F)F)cc3)N=C(N)N(C)C2=O)c1` (stereo not drawn) [Example 27]: the IC50 at human BACE1 (Activity Table, Examples 1-108) is 0.11 to 1 µM.

At human BACE1 (Activity Table, Examples 1-108), `C=CCCOc1cccc([C@@]2(c3ccc(OC(F)F)cc3)N=C(N)N(C)C2=O)c1` [Example 10A, (5R)-2-amino-5-[3-(but-3-en-1-yloxy)phenyl]-5-[4-(difluoromethoxy)phenyl]-3-methyl-3,5-dihydro-4H-imidazol-4-one] displayed a 50% inhibitory concentration (IC50) of less than 0.1 µM.

The compound `COCCC1CC(c2cccc(C3(c4ccc(OC(F)F)cc4)N=C(N)N(C)C3=O)c2)C1` (stereo not drawn) [Example 59, 2-amino-5-[4-(difluoromethoxy)phenyl]-5-{3-[3-(2-methoxyethyl)cyclobutyl]phenyl}-3-methyl-3,5-dihydro-4H-imidazol-4-one] registered an IC50 on human BACE1 (Activity Table, Examples 1-108) of 0.11 to 1 µM.

`C=CC[C@@H](C)c1cccc(C2(c3ccc(OC(F)F)cc3)N=C(N)N(C)C2=O)c1` (stereo partly drawn) [Example 69, 2-amino-4-(4-(difluoromethoxy)phenyl)-1-methyl-4-(3-((R)-pent-4-en-2-yl)phenyl)-1H-imidazol-5(4H)-one] displayed an IC50 against human BACE1 (Activity Table, Examples 1-108) of 0.11 to 1 µM.

The compound `CC(=O)Nc1cccc(C2(c3ccc(OC(F)F)cc3)N=C(N)N(C)C2=O)c1` (stereo not drawn) [Example 116, N-(3-{2-amino-4-[4-(difluoromethoxy)phenyl]-1-methyl-5-oxo-4,5-dihydro-1H-imidazol-4-yl}phenyl)acetamide] displayed a half-maximal inhibitory concentration (IC50) on human BACE1 (Examples 109-141) of 0.11 to 1 µM.

`CN1C(=O)C(c2ccc(OC(F)F)cc2)(c2ccc(F)c(C#CCCCCl)c2)N=C1N` (stereo not drawn) [Example 20A, 2-amino-5-[3-(5-chloropent-1-yn-1-yl)-4-fluorophenyl]-5-[4-(difluoromethoxy)phenyl]-3-methyl-3,5-dihydro-4H-imidazol-4-one] came in with an IC50 at human BACE1 (Activity Table, Examples 1-108) of less than 0.1 µM.

On human BACE1 (Examples 109-141), `CC(C)Oc1cc(C2(c3ccc(OC(F)F)cc3)N=C(N)N(C)C2=O)ccc1F` (stereo not drawn) [Example 136, 2-amino-5-[4-(difluoromethoxy)phenyl]-5-(4-fluoro-3-isopropoxyphenyl)-3-methyl-3,5-dihydro-4H-imidazol-4-one] came in with an IC50 of 0.11 to 1 µM.

With `CN1C(=O)C(c2ccc(OC(F)F)cc2)(c2cccc(NC(=O)C=Cc3ccccc3)c2)N=C1N` (stereo not drawn) [Example 32], the IC50 at human BACE1 (Activity Table, Examples 1-108) lay in the range of 0.11 to 1 µM.

For `CN1C(=O)C(c2ccc(OC(F)F)cc2)(c2cccc(NC(=O)c3ccccc3)c2)N=C1N` (stereo not drawn) [Example 35], at human BACE1 (Activity Table, Examples 1-108), the IC50 lay within 0.11 to 1 µM.

Regarding `CN1C(=O)C(c2ccc(OC(F)F)cc2)(c2cccc(NC(=O)c3sccc3Br)c2)N=C1N` (stereo not drawn) [Example 39], the IC50 against human BACE1 (Activity Table, Examples 1-108) is less than 0.1 µM.

`C/C=C/c1cc([C@@]2(c3ccc(OC(F)F)cc3)N=C(N)N(C)C2=O)ccc1F` [Example 77B, (5R)-2-amino-5-[4-(difluoromethoxy)phenyl]-5-{4-fluoro-3-[(1E)-prop-1-en-1-yl]phenyl}-3-methyl-3,5-dihydro-4H-imidazol-4-one] gave an IC50 against human BACE1 (Activity Table, Examples 1-108) of less than 0.1 µM.

Consider `CN1C(=O)C(c2ccc(OC(F)F)cc2)(c2cccc(N)c2)N=C1N` (stereo not drawn) [Example 115, 2-amino-5-(3-aminophenyl)-5-[4-(difluoromethoxy)phenyl]-3-methyl-3,5-dihydro-4H-imidazol-4-one], for which the half-inhibitory concentration (IC50) against human BACE1 (Examples 109-141) is more than 1 µM.

Regarding `CN1C(=O)[C@@](c2ccc(OC(F)F)cc2)(c2ccc(F)c(/C=C/CCF)c2)N=C1N` [Example 140, (5R)-2-amino-5-[4-(difluoromethoxy)phenyl]-5-{4-fluoro-3-[(1E)-4-fluorobut-1-en1-yl]phenyl}-3-methyl-3,5-dihydro-4H-imidazol-4-one], at human BACE1 (Examples 109-141), the IC50 was more than 1 µM.

With `CN1C(=O)C(c2ccc(OC(F)F)cc2)(c2ccc(F)c(OCCC(F)F)c2)N=C1N` (stereo not drawn) [Example 92, 2-Amino-5-[4-(difluoromethoxy)phenyl]-5-[3-(3,3-difluoropropoxy)-4-fluorophenyl]-3-methyl-3,5-dihydro-4H-imidazol-4-one], the IC50 at human BACE1 (Activity Table, Examples 1-108) is less than 0.1 µM.
